{"source": "PubChem BioAssay AID180", "about": "(DTP/NCI, 2004)", "system": "BDF1 mice, Adenocarcinoma 755 s.c., tumor weight T/C", "assay": "NCI In Vivo Anticancer Drug Screen. Data for tumor model Adenocarcinoma 755 (subcutaneous) in B6D2F1 (BDF1) mice", "details": "endpoint: mean tumor weight, schedule: Q01DX011 (ip), higher = larger tumour", "procedure,_shortened": "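In vivo antitumor screen on a transplantable tumor line. Result equals the measure in compound-treated animals divided by the same measure in vehicle controls.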", "note": "Values joined by “and” are separate entries in the source; they are usually repeats but may differ in a detail not shown here. Identical values can stand only once.", "data": [{"smiles": "C[N+](C)(C)c1ncnc2nc[nH]c12", "values": [{"measurement": "T/C", "setting": "dose: 1.25 mg/kg/injection, vehicle: saline", "result": "89 % of control and 77 % of control"}, {"measurement": "T/C", "setting": "dose: 2.5 mg/kg/injection, vehicle: saline", "result": "61 % of control and 75 % of control and 86 % of control"}, {"measurement": "T/C", "setting": "dose: 11.25 mg/kg/injection, vehicle: saline", "result": "44 % of control"}, {"measurement": "T/C", "setting": "dose: 20.0 mg/kg/injection, vehicle: saline", "result": "6 % of control and 12 % of control"}, {"measurement": "T/C", "setting": "dose: 22.5 mg/kg/injection, vehicle: saline", "result": "3 % of control"}, {"measurement": "T/C", "setting": "dose: 40.0 mg/kg/injection, vehicle: saline", "result": "1 % of control and 3 % of control"}, {"measurement": "T/C", "setting": "dose: 45.0 mg/kg/injection, vehicle: saline", "result": "1 % of control"}, {"measurement": "T/C", "setting": "dose: 80.0 mg/kg/injection, vehicle: saline", "result": "1 % of control and 4 % of control"}, {"measurement": "T/C", "setting": "dose: 90.0 mg/kg/injection, vehicle: saline", "result": "1 % of control"}, {"measurement": "T/C", "setting": "dose: 160.0 mg/kg/injection, vehicle: saline", "result": "1 % of control and 3 % of control"}]}, {"smiles": "Nc1nc(SCC(=O)c2ccccc2)c2[nH]cnc2n1", "values": [{"measurement": "T/C", "setting": "dose: 0.46 mg/kg/injection, vehicle: saline", "result": "95 % of control"}, {"measurement": "T/C", "setting": "dose: 0.93 mg/kg/injection, vehicle: saline", "result": "91 % of control"}, {"measurement": "T/C", "setting": "dose: 1.87 mg/kg/injection, vehicle: saline", "result": "75 % of control"}, {"measurement": "T/C", "setting": "dose: 15.0 mg/kg/injection, vehicle: saline", "result": "6 % of control"}, {"measurement": "T/C", "setting": "dose: 30.0 mg/kg/injection, vehicle: saline", "result": "4 % of control and 6 % of control"}, {"measurement": "T/C", "setting": "dose: 60.0 mg/kg/injection, vehicle: saline", "result": "4 % of control and 12 % of control"}, {"measurement": "T/C", "setting": "dose: 120.0 mg/kg/injection, vehicle: saline", "result": "2 % of control"}, {"measurement": "T/C", "setting": "dose: 240.0 mg/kg/injection, vehicle: saline", "result": "2 % of control"}]}, {"smiles": "CCOc1ccccc1C(=O)Nc1ccc(Br)cc1", "values": [{"measurement": "T/C", "setting": "dose: 12.0 mg/kg/injection, vehicle: carboxymethylcellulose (CMC)", "result": "66 % of control"}, {"measurement": "T/C", "setting": "dose: 25.0 mg/kg/injection, vehicle: carboxymethylcellulose (CMC)", "result": "45 % of control"}, {"measurement": "T/C", "setting": "dose: 50.0 mg/kg/injection, vehicle: carboxymethylcellulose (CMC)", "result": "40 % of control"}, {"measurement": "T/C", "setting": "dose: 100.0 mg/kg/injection, vehicle: carboxymethylcellulose (CMC)", "result": "28 % of control and 50 % of control"}, {"measurement": "T/C", "setting": "dose: 200.0 mg/kg/injection, vehicle: carboxymethylcellulose (CMC)", "result": "17 % of control and 23 % of control"}, {"measurement": "T/C", "setting": "dose: 400.0 mg/kg/injection, vehicle: carboxymethylcellulose (CMC)", "result": "7 % of control and 32 % of control"}, {"measurement": "T/C", "setting": "dose: 400.0 mg/kg/injection, vehicle: saline", "result": "32 % of control"}, {"measurement": "T/C", "setting": "dose: 700.0 mg/kg/injection, vehicle: carboxymethylcellulose (CMC)", "result": "22 % of control"}, {"measurement": "T/C", "setting": "dose: 800.0 mg/kg/injection, vehicle: carboxymethylcellulose (CMC)", "result": "42 % of control"}, {"measurement": "T/C", "setting": "dose: 800.0 mg/kg/injection, vehicle: saline", "result": "21 % of control"}]}]}
